“Also recorded” adds a separate entry of the source. Read-outs that look alike come from different tables or passages of the source.
Legend:
LSD1 in HCT116 cells = target: T1, LSD1 in HCT116 cells (Homo sapiens, UniProt O60341); assay: LSD1 degradation (LSD1 abundance) by western blot; format: cell-based
T1 construct: host or cells: HCT116
Procedure: Using the same conditions, we also determined the effects of SP2509, 25, 27, 28, 30 and 31 on histone H3 lysine 4 dimethyl (H3K4me2) a validated substrate for LSD1 using a specific antibody for H3K4me2 (Fig. S4 ^†).
(§1) Compounds were tested at concentration ranges of 0.2–20 μM and LSD1 abundance was quantified at 24 hours (Fig. S5 ^†). 49, 52 and 54 were also evaluated at 48 and 72 hours. […] We also determined the effects of these compounds on the histone methyl marker H3K4me2 (Fig. S5 and S6 ^†).
2.5 Protocols for LSD1 degradation and histone methylation in HCT116 cells HCT116 human colon carcinoma cells were grown in Dulbecco’s Modified Eagle Medium (DMEM) supplemented with Fetal Bovine Serum (FBS, 10% final concentration) and 1x glutamine/penicillin/streptomycin. Cells were incubated at 37 °C and 5% CO2. Cells were treated […]
untreated (WT) cells were included as controls.
(§2) HCT116 cells were seeded into six well plates (400000 cells per well) and after requisite compound treatment time (24h, 48h, 72h) cells were harvested and either snap-frozen in liquid nitrogen or lysed in lysis buffer (50mM Tris-HCl, 150 mM NaCl, 0.5% NP-40, 0.5% Triton X-100 + protease inhibitor) on ice for 30 mins. This was centrifuged (15000 rpm, 4 °C, 15 mins) and the supernatant collected.
H2SO4 (0.4 M, equal volume) was added to the pellets for histone extraction and the tubes incubated overnight at 4 °C. Following this, the histone extract was centrifuged (15000 rpm, 4 °C, 15 mins) and the supernatant collected. Protein concentrations of whole cell extract were quantified via Bradford Assay using BIO-RAD Protein Assay Dye Reagent Concentrate. […]
(§3) or an equivalent volume of histone extract loaded per lane, with all extracts dyed with 4x NuPAGE LDS Sample Buffer. PageRuler Plus Prestained Ladder was used as a reference. Gel electrophoresis was carried out at 140 V for 60-90 mins, following which the proteins were transferred onto nitrocellulose membrane at 30 V for 60 mins. Membranes were blocked in LI-COR Intercept Blocking Buffer overnight at RT on a roller, following which the membrane was probed with primary antibodies for 1 h at RT. The membrane was washed with PBS + 0.1% Tween (3 x 10 mins), then incubated with secondary antibodies for 50 mins at RT. The membrane was washed again (PBS Tween 2 x 10 mins, PBS 1 x 10 mins) following which the blot was visualised with the Odyssey Infrared Imaging System. Image processing and quantification was performed with ImageStudio Lite. […]
(§4) a-tubulin (mouse) – Sigma, t5168 (1:10000 dilution)

H3K4me2 in HCT116 cells = assay: Histone methylation H3K4me2 by western blot; format: cell-based, human; conditions: HCT116, TCP series conditions (0.2–20 μM)
Procedure: We next screened 25–33 and SP2509 over a concentration range of 0.1–10 μM in HCT116 cells (obtained from ATCC, CCL-247) and determined LSD1 abundance after 24 hours with an antibody for LSD1 (Fig. S4 ^†). […] Using the same conditions, we also determined the effects of SP2509, 25, 27, 28, 30 and 31 on histone H3 lysine 4 dimethyl (H3K4me2) a validated substrate for LSD1 using a specific antibody for H3K4me2 (Fig. S4 ^†).
as §1, with “Compounds 39–41, 49, 52 and 54 were screened for LSD1 degradation in HCT116 cells using a specific antibody for LSD1. This was performed side-by-side with TCP. Compounds” for “Compounds”
2.5 Protocols for LSD1 degradation and histone methylation in HCT116 cells HCT116 human colon carcinoma cells were grown in Dulbecco’s Modified Eagle Medium (DMEM) supplemented with Fetal Bovine Serum (FBS, 10% final concentration) and 1x glutamine/penicillin/streptomycin. Cells were incubated at 37 °C and 5% CO2. Cells were treated with compounds (0.1-20 µM) with a final DMSO volume of 0.04%. DMSO (0.04%) treated and untreated (WT) cells were included as controls.
as §2
H2SO4 (0.4 M, equal volume) was added to the pellets for histone extraction and the tubes incubated overnight at 4 °C. Following this, the histone extract was centrifuged (15000 rpm, 4 °C, 15 mins) and the supernatant collected. Protein concentrations of whole cell extract were quantified via Bradford Assay using BIO-RAD Protein Assay Dye Reagent Concentrate.
as §3, with “Western blots were run on NuPAGE 4-12% Bis-Tris gels, with 30 µg of protein (whole cell extract) or an” for “or an”
as §4

[1] = target: T2, HDAC1-CoREST-LSD1 complex (Homo sapiens, UniProt O60341); assay: LSD1 HRP-coupled demethylase assay, TCP analogues; format: biochemical; conditions: for inhibition at 50 µM: read-out: LSD1 inhibition at 50 μM
T2 construct: full length native LSD1 (UniProt ID: O60341); made in house; host or cells: HEK 293F cells (co-transfection, pcDNA3 vectors)
Procedure: We then evaluated LSD1 inhibition in the LSD1-HDAC1-CoREST complex using the established horseradish peroxidase (HRP) assay.[8]
2. Supplementary Information: Biology
2.1. LSD-HDAC1-CoREST expression and purification
Lysis Buffer (Buffer A) Wash Buffer (Buffer B)
• 50 mM Tris/Cl pH 7.5 • 50 mM Tris/Cl pH 7.5
• 50 mM Potassium Acetate • 50 mM Potassium Acetate […]
Cleavage Buffer (Buffer C) Gel Filtration Buffer (Buffer D)
• 50 mM Tris/Cl pH 7.5 Filtered at vacuum.
• 50 mM Potassium Acetate • 50 mM Tris/Cl pH 7.5
• 5 % v/v Glycerol • 50 mM Potassium Acetate
• 0.5 mM tris(2- • 0.5 mM TCEP carboxyethyl)phosphine (TCEP)
The CoREST ternary complex was comprised of full length native LSD1 (UniProt ID: O60341), full length HDAC1 (UniProt ID: Q13547) and N-terminally truncated RCOR1 (86-485aa) (UniProt ID:
Q9UKL0). Protein constructs were cloned into pcDNA3 vector. The RCOR1 constructs contained an N-terminal (His)10(Flag)3 tag followed by a Tev protease cleavage site. The constructs for ternary complex were co-transfected into suspension-grow HEK 293F cells (Thermofisher Scientific) with polyethylenimine (PEI) (Sigma) and harvested after 48 hours. This section of the procedure was carried out as described previously in literature.11,12
Cell pellets from 1.2 L culture were defrosted, and buffer A (30 mL) was added. The solution was sonicated (Soniprep 150) in an beaker of ice using a 9 mm probe at 10 ampules; operated with 10 […]
Components and concentrations for the HRP-coupled demethylase assay […]
The assay components are shown at their final concentrations per well in the table above. CoREST complex (HDAC 1/RCOR1/LSD1) was added to the assay buffer alongside either DMSO or the relevant inhibitor at the desired concentration on black-walled 96 well plates. Alongside this was another control, with DMSO but no CoREST or inhibitor. Plates were spun to 3000 rpm between each addition of a reagent. Plates were incubated at 20 °C for 30 mins, following which HRP/Amplex Ultrared (1:1 mixture) and peptide was added. Plates were spun, then read on an PerkinElmer 2030 Explorer plate reader, with excitation of 530 nm and […] of 590 nm, with 7 readings taken over […]
Components, where bought in, are listed below:
HRP – Pierce™ Horseradish Peroxidase, Invitrogen
H3K4me2 peptide – Histone H3 dimethyl lysine-4 peptide, Enzo Life Sciences Amplex UltraRed, ThermoFisher Scientific
To the assay buffer was added HRP/AMP in each well to concentrations equal to those in above, following which hydrogen peroxide solution (diluted from 3% hydrogen peroxide solution into a 20 mM stock) was added, in a 1 in 3 dilution series with final concentrations starting from 3 mM.
Negative control wells contained either 100% buffer or as above with no hydrogen peroxide solution.

LSD1 = system: LSD1; set-up: method as in PMID 38742921; conditions: cited from earlier work
HCT116 cells = assay: CTG cell viability assay; format: cell-based, human; conditions: HCT116, CellTiter-Glo, 0.0041-10 uM, 24-48 h (Fig. S3)
Procedure: 2.4. CTG cell viability assays
HCT116 cells were seeded onto 96-well plates at a density of 2000 cells/well and allowed 24 h to settle. Cells were then treated with LSD1 inhibitors (0.0041-10 uM) alongside WT, DMSO and cell free control wells for 24-48 h. After this time, plates were equilibrated to RT for 30 mins, then CellTiter-Glo (Promega, G9242) reagent (5 uL/100 uL media) was added. Cells were lysed on an orbital shaker for 10 mins, then incubated at RT for 2 mins to allow luminescence to stabilise, following which luminescence was recorded on a HiDEX Sense microplate reader. To obtained plotted values, luminescence of each tested well was divided by that of the DMSO control, which were plotted against concentration using GraphPad Prism. […] was applied to obtain apparent IC50 values where possible.
Figure S3. Cell viability dose response curves
(1 picture or pasted object on this page, not shown here)

[2] = HCT116, 0.2–20 μM, 24 hours, LSD1 antibody
[3] = complex 50 nM, mean ± SD from three replicates

LSD1 degradation (LSD1 in HCT116 cells; [2])	LSD1 degradation (LSD1 in HCT116 cells; HCT116, 48 and 72 hours)	IC50 ([1]; complex 50 nM) [nM]	IC50 [1, 3] [nM]	inhibition at 50 µM ([1]; single concentration 50 μM, complex 50 nM, compared to no compound treatment control) [%]	Compound	H3K4me2 histone methyl marker (H3K4me2 in HCT116 cells)	ability to increase H3K4me2 on peptides and nucleosomes (LSD1)	cytotoxic effects in cells (HCT116 cells)	inhibition at 50 µM [1] [%]
no degradation	no degradation	280	282 ± 40	–	N[C@@H]1C[C@H]1c1ccc(C(=O)NCCc2ccc(OCCCCCCCCCCCC(=O)NCCNc3cccc4c3C(=O)N(C3CCC(=O)NC3=O)C4=O)cc2)cc1 (some centres unmarked) [compound 54]	no changes	–	–	–
–	–	–	–	–	N[C@@H]1C[C@H]1c1ccccc1 (racemic) [TCP, tranylcypromine]	neither did we observe changes; also recorded: did not increase H3K4me2 levels	increased H3K4me2 levels	not observed	–
–	–	–	–	–	COc1ccc(-c2c(-c3ccc(C#N)c(F)c3)nc(N3CCC(N)CC3)n(C)c2=O)cc1F [CC-90011]	–	increased H3K4me2 levels	–	–
no degradation	no degradation	–	63	100	Cc1ncsc1-c1ccc(CNC(=O)[C@@H]2C[C@@H](O)CN2C(=O)[C@@H](NC(=O)COCCOCCOCCNC(=O)c2ccc([C@@H]3C[C@H]3N)cc2)C(C)(C)C)cc1 [compound 49]	no changes	–	–	–
–	–	–	–	–	N[C@H]1CC[C@H](N[C@@H]2C[C@H]2c2ccccc2)CC1 [ORY1001, reference compound]	neither did we observe changes; also recorded: did not increase H3K4me2 levels	–	not observed	100

From article PMC12323867 (RSC Medicinal Chemistry, 2025)
